Literature values as cited in US9156879B1, “Chromatography media” (Merck Sharp & Dohme Corp., priority 2010, dated 2015).

Settings: critical micelle concentration of detergent

CMC % (w/v)	Compound
0.005 % (w/v)	CCCCCCCCCCCCOCCOCCOCCOCCOCCOCCOCCOCCO [C12E8]
0.60 % (w/v)	C[C@H](CCC(=O)O)[C@H]1CC[C@H]2[C@@H]3[C@H](O)C[C@@H]4C[C@H](O)CC[C@]4(C)[C@H]3C[C@H](O)[C@]12C [Cholate]
0.73 % (w/v)	CCCCCCCCO[C@@H]1O[C@H](CO)[C@@H](O)[C@H](O)[C@H]1O [Octylglucoside]
0.23 % (w/v)	CCCCCCCCCCCCOS(=O)(=O)[O-].[Na+] [SDS, sodium dodecyl sulfate]
0.002 % (w/v)	CCCCCCCC/C=C\CCCCCCCC(=O)OCCOCC(OCCO)C1OCC(OCCO)C1OCCO (stereo not drawn) [Tween 80]
0.011 % (w/v)	CCCCCCCCCCCCCC[N+](C)(C)CCCS(=O)(=O)[O-] [Zwittergent 3-14]
0.21 % (w/v)	Deoxycholate
0.017 % (w/v)	Nonidet P-40
0.021 % (w/v)	Triton X-100

Compound	CMC % (w/v)
CCCCCCCCCCCCCCCC[N+](C)(C)C.[Br-] [C16TAB]	0.04 % (w/v)
C[C@H](CCC(=O)NCCC[N+](C)(C)CCCS(=O)(=O)[O-])[C@H]1CC[C@H]2[C@@H]3[C@H](O)C[C@@H]4C[C@H](O)CC[C@]4(C)[C@H]3C[C@H](O)[C@]12C [CHAPS, 3[(3-cholamidopropyl)dimethylammonio]-1-propanesulfonate]	0.49 % (w/v)
LysoPC	0.0004 % (w/v)
